Measured values as given in patent US5556858A, “Cis-2-[(4-heteroaryl-1-piperazinyl)alkyl] hexahydro-1H-isoindole-1,3 (2H)-diones and related compounds and their therapeutic utility” (Hoechst-Roussel Pharmaceuticals, Inc., priority 1995, dated 1996).
Structures can show the parent of a compound that is named as a salt.

System: apomorphine climbing
Test: climbing mice assay (antipsychotic activity)
Assay type: in vivo, mice (CK-1 male)
Conditions: ip, apomorphine 1.5 mg/kg subcutaneously, climbing score vs control; for ED50: Mus musculus
Method: Subject […] male mice (23-27 grams) are group-housed under standard laboratory conditions. The mice are individually placed in wire mesh stick cages (4"×10") and are allowed one hour for adaption and exploration of the new environment.
For evaluation of climbing, 3 readings are taken at 10, 20, and 30 minutes-after apomorphine administration according to the following scale: […]
Mice consistently climbing before the injection of apomorphine are discarded.
With full-developed apomorphine climbing, the animals are hanging on to the cage walls, rather motionless, over long periods of time. By contrast, climbs due to mere motor stimulation usually only last a few seconds.
The climbing scores are individually totaled (maximal score: 6 per mouse over 3 readings) and the total score of the control group (vehicle intraperitoneally-apomorphine subcutaneously) is set to 100%.

| Structure (SMILES) | ED50 [mg/kg] | CLIMBING MOUSE ASSAY ED50 [mg/kg] |
| --- | --- | --- |
| O=C(CN1CCC(c2noc3cc(F)ccc23)CC1)N1CCc2ccccc2C1 [1-(1,2,3,4-Tetrahydro-1H-isoquinolin-2-yl)-2-[4-(6-fluoro-1,2-benzosoxazol-3-yl)-1-piperidinyl]-ethanone hydrochloride ethanolate] | 6.25 |  |
| Cl.Cl.NCCCN1CCC(c2noc3cc(F)ccc23)CC1 [1-(3-Aminopropyl)-4-(6-fluoro-1,2-benzisoxazol-3-yl)piperidine dihydrochloride] | 22.6 |  |
| CC(=O)c1ccc(CCCCN2CCC(c3noc4cc(F)ccc34)CC2)cc1 [1-[4-(4'-Acetophenyl)butyl]-4-(6-fluoro-1,2-benzisoxazol-3-yl)piperidine] | 0.34 |  |
| COc1cc(C(C)=O)ccc1OCCCN1CCC(c2nsc3cc(F)ccc23)CC1.Cl [1-[4-[3-[4-(6-Fluoro-1,2-benzisothiazol-3-yl)-1-piperidinyl]propoxy]-3-methoxy-phenyl]ethanone hydrochloride] | 0.16 |  |
| COc1cc(C(C)=O)ccc1OCCCCN1CCC(c2noc3ccccc23)CC1 [1-[4-[4-[4-(1,2-Benzisoxazol-3-yl)-1-piperidinyl]butoxy]-3-methoxyphenyl]ethanone] | 1.6 |  |
| COc1cc(C(C)=O)ccc1OCCCCN1CCC(c2noc3cc(F)ccc23)CC1 [1-[4-[4-[4-(6-Fluoro-1,2-benzisoxazol-3-yl)-1-piperidinyl]butoxy]-3-methoxyphenyl]ethanone] | 0.68 |  |
| C=C1c2ccccc2C(=O)N1CCN1CCC(c2noc3cc(F)ccc23)CC1.Cl [2,3-Dihydro-2-[2-[4-(6-fluoro-1,2-benzisoxazol-3-yl)-1-piperidinyl]ethyl]-3-methylene-1H-isoindol-1-one hydrochloride] | 0.64 |  |
| O=C1c2ccccc2CN1CCN1CCC(c2noc3cc(F)ccc23)CC1 [2,3-dihydro-2-[2-[4-(6-Fluoro-1,2-benzisoxazol-3-yl)-1-piperidinyl]ethyl]-1H-isoindol-1-one] | 1.9 |  |
| CC1c2ccccc2C(=O)N1CCN1CCC(c2noc3cc(F)ccc23)CC1 (stereo not drawn) [2-[2-[4-(6-Fluoro-1,2-benzisoxazol-3-yl)-1-piperidinylethyl]-2,3-dihydro-3-methyl-1H-isoindol-1-one hydrochloride] | 1.17 |  |
| O=C1c2ccccc2C(O)N1CCN1CCN(c2n[nH]c3cc(F)ccc23)CC1 (stereo not drawn) [2-[2-[4-(6-Fluoro-1H-indazol-3-yl)-1-piperazinyl]ethyl-2,3-dihydro-3-hydroxy-1H-isoindol-1-one hemifumarate] | 2.2 |  |
| O=C(CN1CCC(c2noc3cc(F)ccc23)CC1)N1Cc2ccccc2C1.O=C(O)/C=C/C(=O)O [2-[4-(6-Fluoro-1,2-benzisoxazol-3-yl)-1-piperidinyl]-1-(2,3-dihydro-1H-isoindol-2-yl)ethanone fumarate] | 2.33 |  |
| Fc1ccc2c(C3CCN(CCC4COc5ccccc5O4)CC3)noc2c1 (stereo not drawn) [2-[4-(6-fluoro-1,2-benzisoxazol-3-yl)-1-piperidinyl]-ethyl]-1,4-benzodioxan] | 0.29 |  |
| Cc1nc2ccccc2c(=O)n1CCN1CCC(c2noc3cc(F)ccc23)CC1 [3-[2-[4-(6-Fluoro-1,2-benzisoxazol-3-yl)-1-piperidinyl]ethyl]-2-methyl-3H-quinazolin-4-one] | 0.61 |  |
| Fc1ccc2c(c1)CN(CCN1CCN(c3n[nH]c4ccccc34)CC1)C2.O=C(O)/C=C\C(=O)O.O=C(O)/C=C\C(=O)O [4-(1H-indazol-3-yl)-1-[2-(2,3-dihydro-5-fluoro-1H-isoindol-2-yl)ethyl]piperazine dimaleate] | 1.32 |  |
| Cl.Cl.Fc1ccc2c(C3CCN(CCN4Cc5ccccc5C4)CC3)noc2c1 [4-(6-Fluoro-1,2-benzisoxazol-3-yl)-1-[2-(2,3-dihydro-1H-isoindol-2-yl)ethyl]-piperidine dihydrochloride] | 0.36 |  |
| Cc1cccc2c1CN(CCN1CCN(c3n[nH]c4cc(F)ccc34)CC1)C2 [4-(6-Fluoro-1H-indazol-3,yl)-1-[2-(2.3-dihydro-4-methyl-1H-isoindol-2-yl)ethyl]piperazine difumarate] | 0.35 |  |
| Fc1ccc2c(N3CCN(CCN4Cc5ccccc5C4)CC3)n[nH]c2c1.O=C(O)/C=C\C(=O)O.O=C(O)/C=C\C(=O)O [4-(6-Fluoro-1H-indazol-3-yl)-1-[2-(2,3-dihydro-1H-isoindol-2-yl)-ethyl]piperazine dimaleate] | 0.25 |  |
| Fc1ccc2c(c1)CN(CCN1CCN(c3n[nH]c4cc(F)ccc34)CC1)C2.O=C(O)/C=C\C(=O)O.O=C(O)/C=C\C(=O)O [4-(6-Fluoro-1H-indazol-3-yl)-1-[2-(5-fluoro-2,3-dihydro-1H-isoindol-2-yl)-ethyl]piperazine dimaleate] | 0.16 |  |
| Fc1ccc2c(c1)CN(CCN1CCC(c3n[nH]c4cc(F)ccc34)CC1)C2.O=C(O)/C=C\C(=O)O.O=C(O)/C=C\C(=O)O [4-(6-Fluoro-1H-indazol-3-yl)-1-[2-(5-fluoro-2,3-dihydro-1H-isoindol-2-yl)ethyl]piperidine dimaleate] | 0.27 |  |
| Fc1ccc2c(N3CCN(CCCN4Cc5ccccc5C4)CC3)n[nH]c2c1 [4-(6-Fluoro-1H-indazol-3-yl)-1-[3-(2.3-dihydro-1H-isoindol-2-yl)propyl]-piperazine dimaleate] | 0.46 |  |

| Structure (SMILES) | ED50 [mg/kg] | CLIMBING MOUSE ASSAY ED50 [mg/kg] |
| --- | --- | --- |
| Cc1ccc2c(c1)CN(CCN1CCN(c3n[nH]c4cc(F)ccc34)CC1)C2 [4-(Fluoro-1H-indazol-3-yl)-1-[2-(2,3-dihydro-5-methyl-1H-isoindol-2-yl)-ethyl]piperazine difumarate] | 0.17 |  |
| CCCCCCCCCC(=O)OCCCCN1CCC(c2noc3cc(F)ccc23)CC1.O=C(O)/C=C/C(=O)O [4-[4-(6-Fluoro-1,2-benzisoxazol-3-yl)-1-piperidinyl]butyl decanoate fumarate] | 3.31 |  |
| OCCCN1CCC(c2noc3cc(F)ccc23)CC1 [6-Fluoro-3-[1-(3-hydroxypropyl)-4-piperidinyl]-1,2-benzisoxazole] | 4.1 |  |
| Fc1ccc2c(C3CCN(CCCOc4cccc5cnccc45)CC3)noc2c1 [6-Fluoro-3-[1-[3-[(isoquinol-5-yl)oxylpropyl]-4-piperidinyl]-1,2-benzisoxazole sesquifumarate] | 0.172 |  |
| COc1cc(C(C)=O)ccc1OC/C=C\CN1CCC(c2noc3cc(F)ccc23)CC1 [(Z)-1-[4-[[4-[4-(6-fluoro-1,2-benzisoxazol-3-yl)-1-piperidinyl]-2-butenyl]oxy]-3-methoxy-phenyl]ethanone] | 0.61 |  |
| CC(CCN1C(=O)c2ccccc2C1=O)N1CCC(c2noc3cc(F)ccc23)CC1.Cl (stereo not drawn) [N,[3-[4-(6-Fluoro-1,2-benzisoxazol-3-yl)-1-piperidinyl]butyl]phthalimide hydrochloride] |  | 0.7 |
| Fc1ccc2c(C3CCN(CCN4CCc5ccccc5C4)CC3)noc2c1 [N-12-[4-(6-Fluoro-1,2-benzisoxazol-3-yl)-1-piperidinyl]ethyl-1,2,3,4-tetrahydroisoquinoline difumarate] | 0.23 |  |
| Cl.O=C1c2ccccc2C(=O)N1CCN1CCC(c2nsc3cc(F)ccc23)CC1 [N-[2-[4-(6-Fluoro-1,2-benzisothiazol-3-yl)-1-piperidinyl]ethyl]phthalimide hydrochloride] | 0.38 |  |
| Fc1ccc2c(C3CCN(CCN4CCCc5ccccc54)CC3)noc2c1.O=C(O)/C=C/C(=O)O [N-[2-[4-(6-Fluoro-1,2-benzisoxazol-3-yl)-1-piperidinyl]ethyl]-1,2,3,4-tetrahydroquinoline fumarate] | 1.19 |  |
| O=C1c2c(F)ccc(F)c2C(=O)N1CCN1CCC(c2noc3cc(F)ccc23)CC1 [N-[2-[4-(6-Fluoro-1,2-benzisoxazol-3-yl)-1-piperidinyl]ethyl]-3,6-difluorophthalimide] | 2.9 |  |
| Nc1ccc2c(c1)C(=O)N(CCN1CCC(c3noc4cc(F)ccc34)CC1)C2=O.O=C(O)/C=C/C(=O)O [N-[2-[4-(6-Fluoro-1,2-benzisoxazol-3-yl)-1-piperidinyl]ethyl]-4-aminophthalimide fumarate] | 0.097 |  |
| Cl.O=C1c2ccc(O)cc2C(=O)N1CCN1CCC(c2noc3cc(F)ccc23)CC1 [N-[2-[4-(6-Fluoro-1,2-benzisoxazol-3-yl)-1-piperidinyl]ethyl]-4-hydroxyphthalimide hydrochloride] | 1.6 |  |
| Cl.O=C1c2ccccc2C(=O)N1CCN1CCC(c2noc3cc(F)ccc23)CC1 [N-[2-[4-(6-Fluoro-1,2-benzisoxazol-3-yl)-1-piperidinyl]ethyl]phthalimide h ydrochloride] | 0.48 |  |
| O=C1c2ccccc2C(=O)N1CCN1CCC(c2noc3cc(F)ccc23)CC1 [N-[2-[4-(6-Fluoro-1,2-benzisoxazol-3-yl)-1-piperidinyl]ethyl]phthalimide] | 5 |  |
| Cc1ccc2c(c1)C(=O)N(CCN1CCN(c3n[nH]c4cc(F)ccc34)CC1)C2=O [N-[2-[4-(6-Fluoro-1H-indazol-3-yl)-1-piperazinyl]ethyl]-4-methylphthalimidedihydrochloride] | 0.37 |  |
| Fc1ccc2c(C3CCN(CCN4CCc5ccccc5C4)CC3)n[nH]c2c1.O=C(O)/C=C\C(=O)O.O=C(O)/C=C\C(=O)O [N-[2-[4-(6-Fluoro-1H-indazol-3-yl)-1-piperidinyl]ethyl]-1,2,3,4-tetrahydroisoquinoline dimaleate] | 0.44 |  |
| Cl.O=C1c2ccccc2C(=O)N1CCN1CCC(c2n[nH]c3cc(F)ccc23)CC1 [N-[2-[4-(6-Fluoro-1H-indazol-3-yl)-1-piperidinyl]ethyl]phthalimide hydrochloride] | 0.8 |  |
| O=C1c2ccccc2C(=O)N1CCN1CCN(c2n[nH]c3cc(F)ccc23)CC1 [N-[2-[4-(6-Fluoro-1H-indazol-3.-yl)-1-piperazinyl]ethyl]phthalimide] | 1.2 |  |
| COc1cccc2c1C(=O)N(CCN1CCC(c3noc4cc(F)ccc34)CC1)C2=O [N-[2-[4-(6-fluoro-1,2-benzisoxazol-3-yl)-1-piperidinyl]ethyl]-3-methoxyphthalimide] | 0.16 |  |
